# Experimental data taken from patent publication US6946467B2, “Serine protease inhibitors” (Eli Lilly and Company, priority 2000, dated 2005).
# Where a name gives a salt, the structure may show the parent alone.
row,melting point,Structure (SMILES)
1,135 to 142 °C (dec.),Cl.O=C(N[C@@H](C(=O)N1CCN(CCc2nccs2)CC1)c1ccccc1)c1ccc2cc[nH]c2c1
2,156 to 169 °C,Cl.N#Cc1cc(CCN2CCN(C(=O)[C@H](NC(=O)c3ccc4cc[nH]c4c3)c3ccccc3)CC2)ccn1
3,190 to 192 °C,"COc1ccc(C(=O)N[C@@H](C(=O)N2CCN(CCC3CCCC3)CC2)c2ccccc2)cc1 (as salt: hydrochloride) [Example 30, 1-(4-Methoxybenzoyl-D-phenylglycinyl)-4-(2-cyclopentylethyl)piperazine]"
4,135 to 145 °C (dec.),"O=C(N[C@@H](C(=O)N1CCN(CCc2ccncc2F)CC1)c1ccccc1)c1ccc2cc[nH]c2c1 [Example 58a, 1-[Indole-6-carbonyl-D-phenylglycinyl]-4-[2-(3-fluoropyridin-4-yl)ethyl]piperazine]"
